Laboratory results as given in patent US20080026952A1, “HCV replicon shuttle vectors” (priority 2005, published 2008).

Key:
[1] = system: HCV replicons with NS5B from genotype-1a and genotype-1b clinical isolates in Huh-7 cells; assay: Sensitivity of treatment naive NS5B clinical isolates versus reference replicons (FIG. 3); type: cell-based, HCV genotype-1a and genotype-1b; settings: pools of 96 clones per isolate, reference replicons Con1 (genotype-1b) and H77 (genotype-1a)
Procedure: Four million cured Huh7 cells were transfected with 5 μg of in vitro transcribed RNA using electroporation. Cells were then resuspended in 7.2 ml of DMEM containing 5% FBS and plated in 96-well plate at 50000 cells/well (in 90 μl final volume). Inhibitors were added 24 hours post-transfection in 3 fold dilutions at a final DMSO concentration of 1% and firefly luciferase reporter signal was read 72 hours after addition of inhibitors using the Luciferase Assay system (Promega, cat #E1501). The IC50 values were assessed as the inhibitor concentration at which a 50% reduction in the level of firefly luciferase reporter was observed as compared to the level of firefly luciferase signal without the addition of compounds. Results of studies testing the inhibitory effects of the compound, 2′-C-Methyl-Cytidine, on replication of pSS-1—1a_NS5B—5′AsiSI—3′RsrII and replicons with patient-derived NS5B sequences are shown in Table 2.
In order to test the sensitivity of HCV polymerase inhibitors across genetically diverse and treatment naive clinical isolates, the NS5B coding region from the isolates was amplified and cloned into the replicon shuttle replicons (clinical isolates from genotype-1a were cloned into pSS-1—1a—5′AsiSI_lacZAmC—3′RsrII and genotype-1b clinical isolates were cloned into pSC—1b—5′AsiSI_lacZAmC—3′RsrII). 96 molecular clones were pooled for each clinical isolate. […]

[2] = system: HCV replicon pSS-1_1a_NS5B_5′AsiSI_3′RsrII in Huh7 cells; assay: Transient replicon phenotypic assay (firefly luciferase), reference shuttle vector; type: cell-based, HCV genotype 1a (H77); settings: Hepatitis C virus, Huh-7, 72 h, read-out: 2′-C-Me-C IC50
Procedure: (§1) Five micrograms of DNA plasmids were linearized by Sca I restriction enzyme (Roche). After overnight digestion at 37° C., the DNA was purified using Qiagen PCR purification kit. One microgram of linearized DNA was used for the in vitro transcription using T7 Mega script kit following manufacturer's protocol (Ambion). After 2 hours of incubation at 37° C., DNase treatment was performed for 30 minutes at 37° C. to remove the DNA template. In vitro transcribed RNA was then purified using NucAway Spin Column following manufacturer's protocol (Ambion).
(§2) Cured hepatoma cell line Huh7 were cultured at 37° C. in a humidified atmosphere with 5% CO2 in Dulbecco's Modified Eagle Medium (DMEM) supplemented with Glutamax™ and […] sodium pyruvate (Cat #10569-010). The medium was further supplemented with 10% (v/v) FBS (Cat #16000-036) and 1% (v/v) penicillin/streptomycin (Cat #15140-122). All reagents were from Invitrogen/Gibco.
(§3) Four million cured Huh7 cells were transfected with 5 μg of in vitro transcribed RNA using electroporation. […] Inhibitors were added 24 hours post-transfection in 3 fold dilutions at a final DMSO concentration of 1% and firefly luciferase reporter signal was read 72 hours after addition of inhibitors using the Luciferase Assay system (Promega, cat #E1501). […]

[3] = system: HCV replicon containing NS5B from Clinical Isolate Pt 5 in Huh7 cells; assay: Transient replicon phenotypic assay (firefly luciferase), patient-derived NS5B Pt 5; type: cell-based, HCV genotype 1a; settings: Hepatitis C virus, genotype 1a, Huh-7, 72 h, read-out: 2′-C-Me-C IC50
Procedure: as §1, §2, §3

[4] = system: HCV replicon containing NS5B from Clinical Isolate Pt 6 in Huh7 cells; assay: Transient replicon phenotypic assay (firefly luciferase), patient-derived NS5B Pt 6; type: cell-based, HCV genotype 1a; settings: Hepatitis C virus, genotype 1a, Huh-7, 72 h, read-out: 2′-C-Me-C IC50
Procedure: as §1, §2, §3

[5] = system: HCV replicon containing NS5B from Clinical Isolate Pt 7 in Huh7 cells; assay: Transient replicon phenotypic assay (firefly luciferase), patient-derived NS5B Pt 7; type: cell-based, HCV genotype 1a; settings: Hepatitis C virus, genotype 1a, Huh-7, 72 h, read-out: 2′-C-Me-C IC50
Procedure: as §1, §2, §3

[6] = system: HCV replicon containing NS5B from Clinical Isolate Pt 8 in Huh7 cells; assay: Transient replicon phenotypic assay (firefly luciferase), patient-derived NS5B Pt 8; type: cell-based, HCV genotype 1a; settings: Hepatitis C virus, genotype 1a, Huh-7, 72 h, read-out: 2′-C-Me-C IC50
Procedure: as §1, §2, §3

[7] = system: HCV replicon containing NS5B from Clinical Isolate Pt 9 in Huh7 cells; assay: Transient replicon phenotypic assay (firefly luciferase), patient-derived NS5B Pt 9; type: cell-based, HCV genotype 1a; settings: Hepatitis C virus, genotype 1a, Huh-7, 72 h, read-out: 2′-C-Me-C IC50
Procedure: as §1, §2, §3

SMILES	potency across the NS5B clinical isolates as compared to the reference replicons [1]	IC50 [2]	IC50 [3]	IC50 [4]	IC50 [5]	IC50 [6]	IC50 [7]
C1=NNSc2ccccc21 [benzothiadiazine]	variable potencies						
O=C(O)c1cccs1 [thiophene-2-carboxylic acid]	variable potencies						
C[C@@]1(O)[C@H](O)[C@@H](CO)O[C@H]1n1ccc(N)nc1=O [2′-C-Me-C, 2′-C-Methyl-Cytidine]		400 ± 30 nM	300 ± 50 nM	300 ± 40 nM	300 ± 50 nM	400 ± 70 nM	400 ± 60 nM
